From patent US11603366B2, “Crystalline form and B crystalline form of pyrazine-2(1H)-ketone compound and preparation method thereof” (ZHANGZHOU PIEN TZE HUANG PHARMACEUTICAL CO., LTD., priority 2019, dated 2023) come the findings set out here.

A short description of the data set: Pharmacokinetic evaluation in mice, single intragastric administration. The following applies: 300 mpk, male CD-1 mice, plasma. The data set is classed as in vivo, CD-1 mice (male). The method, then: Experimental Purposes: To Test the Pharmacokinetics of the Compound in Mice
CD-1 mice (male), vehicle (0.5% (w/v) methylcellulose 0.5% (v/v) Tween 80 aqueous solution), trifluoroacetate salt of compound 0027.
Animals in groups 1 and 2 were given 5 mg/mL and 30 mg/mL compound by single intragastric administration, respectively, with a dose volume of 10 mL/kg.
The animals were weighed before administration, and the administration volume was calculated according to the body weight.
Whole blood samples (30 μL) were collected at specified times (0.25, 0.5, 1, 2, 4, 6, 8, 24 hours) by saphenous vein collection and the actual time of collection was recorded in the test record. The acceptable error for the collection time points was ±1 minute for time points within 1 hour of administration and ±5% of the theoretical time for other time points.
All blood samples were immediately transferred to labeled commercial centrifuge tubes containing K2-EDTA. After blood samples were collected, the blood samples were centrifugated at 4° C. and 3200 rpm for 10 minutes, and the supernatant plasma was aspirated, and then quickly put into dry ice at a temperature of −20° C. or lower for LC-MS/MS analysis. And the pharmacokinetic parameters were calculated, and experimental result: See Table 5.

Structures are written as SMILES.

`COc1cc(OC)c(Cl)c(-c2nc(-c3nc(-c4cn(C)nc4C)cnc3N)cn(C)c2=O)c1` came in with a Tlast of 24.0 h.
